One test has as its target T1, human HDAC1 (Homo sapiens, UniProt Q13547).
T1 construct: FLAG; made in house; host or cells: 293T cells (transient transfection, anti-FLAG immunoprecipitation, FLAG peptide elution)
Kind of test: In vitro HDAC inhibition activity, [3H]-acetylated histone substrate, HDAC1. Conditions: Table 3. Format: biochemical.

For the next test, the target named is T2, mouse HDAC6 (Mus musculus, UniProt Q9Z2V5).
T2 construct: HA; made in house; host or cells: 293T cells (transient transfection, anti-HA immunoprecipitation, HA peptide elution)
T2 sequence (Q9Z2V5 1-1149): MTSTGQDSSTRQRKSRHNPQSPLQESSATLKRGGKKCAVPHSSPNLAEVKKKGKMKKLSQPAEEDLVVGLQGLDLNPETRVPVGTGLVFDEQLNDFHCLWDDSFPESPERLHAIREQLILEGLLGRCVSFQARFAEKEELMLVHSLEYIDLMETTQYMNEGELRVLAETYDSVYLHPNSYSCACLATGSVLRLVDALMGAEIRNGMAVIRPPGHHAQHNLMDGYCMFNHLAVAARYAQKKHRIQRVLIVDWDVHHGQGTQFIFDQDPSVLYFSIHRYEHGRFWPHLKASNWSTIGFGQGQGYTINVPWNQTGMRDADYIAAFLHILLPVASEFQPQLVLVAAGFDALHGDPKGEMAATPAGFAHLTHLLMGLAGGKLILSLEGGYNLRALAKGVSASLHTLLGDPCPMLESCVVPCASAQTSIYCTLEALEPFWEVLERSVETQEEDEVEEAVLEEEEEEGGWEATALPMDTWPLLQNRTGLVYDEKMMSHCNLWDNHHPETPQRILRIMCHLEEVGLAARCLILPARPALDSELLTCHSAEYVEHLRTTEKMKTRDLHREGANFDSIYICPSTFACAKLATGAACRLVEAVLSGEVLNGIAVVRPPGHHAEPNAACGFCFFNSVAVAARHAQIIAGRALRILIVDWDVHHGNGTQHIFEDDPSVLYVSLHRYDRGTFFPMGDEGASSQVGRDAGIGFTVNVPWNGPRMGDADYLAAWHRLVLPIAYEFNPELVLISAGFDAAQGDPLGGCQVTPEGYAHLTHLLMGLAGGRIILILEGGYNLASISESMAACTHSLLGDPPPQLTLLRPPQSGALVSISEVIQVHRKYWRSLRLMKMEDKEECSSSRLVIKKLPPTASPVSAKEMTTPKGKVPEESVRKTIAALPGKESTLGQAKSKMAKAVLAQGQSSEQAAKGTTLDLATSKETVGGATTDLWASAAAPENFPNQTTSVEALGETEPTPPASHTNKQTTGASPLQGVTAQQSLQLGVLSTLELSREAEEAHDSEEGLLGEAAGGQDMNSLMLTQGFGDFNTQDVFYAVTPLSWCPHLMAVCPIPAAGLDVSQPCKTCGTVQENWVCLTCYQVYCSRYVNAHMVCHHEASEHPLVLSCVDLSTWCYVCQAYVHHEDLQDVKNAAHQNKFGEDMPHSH
Briefly: In vitro HDAC inhibition activity, [3H]-acetylated histone substrate, HDAC6. Format: biochemical. Conditions: Table 3.

T1 sequence (Q13547 whole entry): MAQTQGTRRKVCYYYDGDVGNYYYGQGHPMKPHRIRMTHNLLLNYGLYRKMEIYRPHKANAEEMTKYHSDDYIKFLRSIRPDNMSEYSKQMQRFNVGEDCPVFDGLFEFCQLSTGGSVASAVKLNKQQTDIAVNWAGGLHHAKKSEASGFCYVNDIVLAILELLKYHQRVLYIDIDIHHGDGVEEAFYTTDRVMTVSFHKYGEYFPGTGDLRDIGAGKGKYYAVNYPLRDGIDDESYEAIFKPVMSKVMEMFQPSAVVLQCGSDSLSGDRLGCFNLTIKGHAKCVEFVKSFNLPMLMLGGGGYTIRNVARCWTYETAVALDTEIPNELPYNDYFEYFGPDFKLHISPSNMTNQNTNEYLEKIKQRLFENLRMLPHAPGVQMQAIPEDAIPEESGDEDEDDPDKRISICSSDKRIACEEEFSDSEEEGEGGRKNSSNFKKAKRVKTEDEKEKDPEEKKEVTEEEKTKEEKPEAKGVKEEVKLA

Take `CC[C@H](C)[C@@H]1NC(=O)[C@@H](Cc2ccc(OC)cc2)NC(=O)[C@H](CCCCCSSc2ccncc2)NC(=O)[C@H]2CCCN2C1=O` [SCOP 402, cyclo(-L-Am7(S4Py)-D-Tyr(Me)-L-Ile-D-Pro-)]: the 50% inhibitory concentration (IC50) (as a rule, the concentration at which inhibition is half-maximal) against human HDAC1 (hybrid with DTT (/DTT)) stood at 0.553 nM; on human HDAC1 (hybrid, without DTT), 6.76 nM; on mouse HDAC6 (hybrid with DTT (/DTT)), 2010 nM; on mouse HDAC6 (hybrid, without DTT), 1610 nM.

Values taken from US7488712B2, “Histone deacetylase inhibitors and methods for producing the same” (Kyushu Institute of Technology, priority 2002, dated 2009).
